From patent US8765688B2, “Anti-dandruff compositions containing peptides” (priority 2007, dated 2014)
Ends that are not written are not given here.

Legend:
Format in all cases: cell-based
Malassezia furfur [1] = assay: Minimum inhibitory concentration (MIC) of P18 in the presence of shampoo basic formulation 31-3, CFU after 24 hours; details: for CFU after 24 hours of incubation: in presence of shampoo basic formulation 31-3
Description: The minimum inhibitory concentration (MIC) of the peptide P18 (H-KWKLFKKIPKFLHLAKKF-NH2; carboxy-terminal end amidated; SEQ ID NO: 3) in the presence of the shampoo basic formulation 31-3 (table 16) was tested as follows: […]
The following shampoo basic formulation was prepared: […]
The shampoo basic formulation was prepared by mixing and dissolving the components Texapon NSO and Tego Betain L7. The pH was adjusted to pH 6-7 with NaOH.
The effect of the peptide against M. furfur was analyzed as follows:
(§1) Growth medium: M472-Pityrosporum medium according to DSMZ
(§2) The components were sterilized at 121° C., 1 bar superatmospheric pressure for 20 minutes.
(§3) 2 g/L of olive oil (sterilized by filtration and, after autoclaving, added to the other components)
(§4) Since it was a two-phase medium, the complete medium was treated with sonication in order to enlarge the phase boundary.
(§5) For agar plates, if appropriate, 150 g/L of agar agar were added to the medium.
(§6) The growth test was carried out as follows: A shake flask with M472-Pityrosporum medium was inoculated with M. furfur and incubated with shaking overnight at 30° C. and 200 rpm.
A 96-well microtiter plate was filled with in each case 170 μl of M472-Pityrosporum medium and inoculated with 10 μl of M. furfur suspension of the overnight culture. This corresponded to an optical density of 0.02-0.1, measured at 620 nm. 20 μl of shampoo basic formulation 31-3 were added to this mixture. Peptide P18 was dissolved in DMSO with a concentration of 10 mM.
(§7) The microtiter plate was incubated with shaking at 30° C.
After incubation for 24 hours, the colony-forming units (CFU) were determined by resuspending 1 μl of each of the suspensions in 10 μl of medium and then plating out the obtained suspensions. After incubation for 6 days, the colonies on the plate were counted. The experiment was carried out in double determination.

Malassezia furfur [2] = assay: Effect of P18 variants against M. furfur, CFU after 24 hours at 50 μM
Description: The inhibitory effect of the following P18 variants against M. furfur was analyzed:
The experiments were carried out as follows:
as §1, §2, §3, §4, §5, §6
A 96-well microtiter plate was filled with in each case 100 μl of M472-Pityrosporum medium and inoculated with M. furfur suspension of the overnight culture. The M. furfur suspension was adjusted at the start of the experiment to an optical density, measured at 600 nm, of 0.1. […]
After 24 hours, the colony-forming units (CFU were determined by plating out 10 μl from each of the suspensions and, after incubation for 6 days, counting the colonies. Two independent experiments with in each case three identical mixtures were carried out and the number of colony-forming units was averaged.

Malassezia furfur [3] = assay: Inhibition of Malassezia furfur growth test (optical density and colony-forming units), Examples 1 and 2; details: for colony-forming units: 10 μl plated out
Description: Growth medium: M472-Pitysporum medium according to DSMZ
as §2
2 g/l of olive oil were sterilized by filtration and, after autoclaving, added to the other components.
as §4
For agar plates, if appropriate, […] of agar agar were added to the medium.
The growth test was carried out as follows: A shake flask with M472-Pitysporum medium was inoculated with M. furfur and incubated with shaking overnight at 30° C. and 200 rpm.
A 96-well microtiter plate was filled with in each case 100 μl of M472-Pitysporum medium and inoculated with M. furfur suspension of the overnight culture. The M. furfur suspension was adjusted at the start of the experiment to an optical density, measured at 620 nm, of 0.02. The concentrates of the inhibitor solutions were 1 mM in water or DMSO.
The growth of the following batches was compared by measuring the optical density:
M. furfur suspension without the addition of an inhibitor.
This was to exclude that an inhibition is attributable merely to the effect of the DMSO, or a false positive result being observed.
M. furfur suspension and addition of an aqueous P18 solution with a final concentration of 25 μM.
M. furfur suspension and addition of a P18 solution in DMSO with a final concentration of 25 μM.
M. furfur suspension and addition of a zinc pyrithione (ZPT, Sigma-Aldrich) solution in DMSO with a final concentration of 25 μM.
M. furfur suspension and addition of a Ketoconazole (Sigma-Aldrich) solution in DMSO with a final concentration of 25 μM.
as §7
[…] The colony-forming units (CFU) were then determined by plating out 10 μl from each of the suspensions and, after incubation for 6 days, counting the colonies. The CFU was determined in order to exclude an influence of the two-phase medium and also the growth form of M. furfur on the optical density. […] The experiments were carried out at least in triple determinations and independently repeated.
For this, the procedure was as described in Example 1. 1 mM stock solutions of the fusion peptide P18, magainin 2 and cecropin A in DMSO were prepared. The final concentrations of the peptides in the growth experiments were 25 μM. The same amount of DMSO was likewise added to the suspension without inhibitor in order to exclude a growth-inhibiting effect of the DMSO.
The growth of the following mixtures was compared by measuring the optical density:
This was to exclude that an inhibition is attributable merely to the effect of the DMSO.
M. furfur suspension and addition of a magainin 2 solution in DMSO with a final concentration of 25 μM.
M. furfur suspension and addition of a cecropin A solution in DMSO with a final concentration of 25 μM.
M. furfur suspension and addition of a peptide P18 (SEQ ID NO3) solution in DMSO with a final concentration of 25 μM.

[4] = aqueous solution, 25 μM, incubation time 16 h
[5] = aqueous solution, 25 μM, incubation time 24 h
[6] = aqueous solution, 25 μM, incubation time 40 h
[7] = solution in DMSO, 25 μM, incubation time 16 h
[8] = solution in DMSO, 25 μM, incubation time 24 h
[9] = solution in DMSO, 25 μM, incubation time 40 h

KWKLFKKIPKFLHLAKKF-NH2 [P18, KWKLFKKIPKFLHLAKKF-NH2]
CFU after 24 hours of incubation (Malassezia furfur [1]; P18 concentration 25 μM): 80 | CFU after 24 hours of incubation (Malassezia furfur [1]; P18 concentration 50 μM): 32 | CFU after 24 hours of incubation (Malassezia furfur [1]; P18 concentration 100 μM): 0 | CFU after 24 hours of incubation (Malassezia furfur [1]; P18 concentration 200 μM): 0 | CFU after 24 hours of incubation (Malassezia furfur [1]; P18 concentration 300 μM): 0 | CFU after 24 hours of incubation (Malassezia furfur [1]; P18 concentration 400 μM): 0 | CFU after 24 hours of incubation (Malassezia furfur [1]; P18 concentration 500 μM): 0 | P18 concentrations that completely inhibit growth of M. furfur (Malassezia furfur [1]; in the presence of shampoo basic formulation 31-3, 24 hours): above 100 μM | Averaged number of colony-forming units (CFU) (Malassezia furfur [2]; 50 μM peptide in DMSO): 0 | inhibitory effect against M. furfur compared to DMSO (Malassezia furfur [2]; 50 μM, effectiveness increasing in the order P18AC-OH, P18-OH, P18): increased inhibitory effect against M. furfur as compared to DMSO | inhibition of the growth of M. furfur compared to magainin 2 or cecropin A (Malassezia furfur [3]; 25 μM in DMSO): more effectively than magainin 2 or cecropin A alone | growth of M. furfur (in words) (Malassezia furfur [3]; 25 μM, observed time period up to 40 hours): effectively inhibited | optical density (Malassezia furfur [3]; aqueous solution, 25 μM, incubation time 0 h): 0 | optical density (Malassezia furfur [3]; [4]): 0 | colony-forming units (Malassezia furfur [3]; [4]): 62 | optical density (Malassezia furfur [3]; [5]): 0 | colony-forming units (Malassezia furfur [3]; [5]): 41 | optical density (Malassezia furfur [3]; [6]): 0 | colony-forming units (Malassezia furfur [3]; [6]): 120 | optical density (Malassezia furfur [3]; solution in DMSO, 25 μM, incubation time 0 h): 0 | optical density (Malassezia furfur [3]; [7]): 0 | colony-forming units (Malassezia furfur [3]; [7]): 8 | optical density (Malassezia furfur [3]; [8]): 0 | colony-forming units (Malassezia furfur [3]; [8]): 0 | optical density (Malassezia furfur [3]; [9]): 0 | colony-forming units (Malassezia furfur [3]; [9]): 0 | CFU (Malassezia furfur [3]; solution in DMSO, 25 μM, incubation time 64 h): 0 | CFU (Malassezia furfur [3]; solution in DMSO, 25 μM, incubation time 72 h): 23
